The source of these data is paper PMC6154605, “Multi-Anti-Parasitic Activity of Arylidene Ketones and Thiazolidene Hydrazines against Trypanosoma cruzi and Leishmania spp” (Molecules : A Journal of Synthetic Chemistry and Natural …, 2017).

For data set [1], the system named is L. infantum promastigotes. Put plainly: Leishmanicidal activity on promastigotes, resazurin. The class given is cell-based, Leishmania infantum. The following applies: Leishmania infantum, 48 h; read-out: IC50 ± SD Promastigotes L. infantum. An outline of the steps: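 Promastigotes (2 × 10^6/well) in Schneider's medium with 20% FBS treated with compound dilutions for 48 h at 26 °C. Resazurin reduction read at 570 and 600 nm; IC50 from duplicate experiments, triplicate concentrations.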
On the technique in general: The colour change of resazurin is a common sign of viable cells or microbes.

Data set [2] relates to zebrafish embryos. Kind of data set: Zebrafish embryo toxicity test (LD50). The method, then:
[…] Only embryos that were clearly undamaged after 60 min of observation were kept and subsequently used. Dechorionated embryos were further manipulated using flame-rounded tip glass Pasteur pipettes. […] In all cases, the embryos were incubated in system water with 1% DMSO (negative control) and the compound at different doses between 8 and 96 hpf. The treatment solution was changed daily. […] At selected time points, namely 24, 48, 72 and 96 hpf, embryotoxicity (= mortality) and morphological characteristics of the embryos were evaluated using a Nikon SMZ800 stereomicroscope. The embryos were evaluated for the presence and morphological development (as appropriate) of somites, tail detachment, eyes, heart beat and blood circulation. All individuals were evaluated at all time points.

Data set [3] has as its system NCTC929 fibroblasts. Kind of data set: Nonspecific cytotoxicity on fibroblasts, resazurin. The data set is classed as cell-based. The following applies: NCTC-929, 24 h; read-out: IC50 ± SD Fibroblast NCTC929. An outline of the steps: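 NCTC929 murine fibroblasts seeded 3.00 × 10^4 cells/well, grown overnight, then exposed to compounds for 24 h at 37 °C, 5% CO2. Viability read by resazurin reduction (3 h), dual-wavelength absorbance at 490 and 595 nm with background subtracted. Each concentration tested three times.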

Data set [4] addresses triosephosphate isomerase from T. cruzi (TcTIM) (Trypanosoma cruzi, UniProt P52270). Kind of data set: Inhibition of triosephosphate isomerase. As to conditions: read-out: Percentage of Inhibition TcTIM.
Method: Expression and purification of proteins: TcTIM, LmTIM and HsTIM were expressed in Escherichia coli and purified as described in the literature [39]. […] Before use, extensive dialysis against 100 mM triethanolamine/10 mM EDTA (pH 7.4) was performed.
Enzymatic activity assays: Enzymatic activity was determined following the conversion of glyceraldehyde 3-phosphate into dihydroxyacetone phosphate. […] The reaction mixture (1 mL, pH 7.4) contained 100 mM triethanolamine, 10 mM EDTA, 0.2 mM NADH, 1 mM glyceraldehyde 3-phosphate and 0.9 units of α-glycerol phosphate dehydrogenase. The reaction was initiated by the addition of 5 ng/mL of the TcTIM.
The mixture also contained the compounds at the indicated concentrations. Compounds were dissolved in DMSO. After 2 h, 10 µL was withdrawn and added to a final volume of 100 µL of the reaction mixture for the activity assay. The inhibition assay was performed in a 96-well microplate Varioskan spectrophotometer. […] The experiments were performed in triplicate.
The target of data set [5] is cruzipain (Trypanosoma cruzi, UniProt P25779). Put plainly: Inhibition of T. cruzi cruzipain. The class given is biochemical. The following applies: at 100 µM; read-out: Percentage of Inhibition Cruzipain. The method, then: Cruzipain was purified to homogeneity from epimastigotes of the Tulahuen 2 strain by ConA–Sepharose affinity chromatography, as previously described. Cruzipain (2.5 μM ε = 58,285 M^−1cm^−1) was incubated in 50 mM acetate buffer pH 5.5 with 5 mM DTT, and 100 μM inhibitor were added, shaking the solution for 15 min at 27 °C. The derivatives were added as solutions in DMSO, and the controls contained the same solvent concentration. The concentration of DMSO never exceeded 1% in the reaction medium. L-leucylam-ido(4-guanidino)butane (E-64) was used as a positive control of inhibition. Then, the fluorogenic substrate Z-Phe-Arg 7-amido-4-methylcoumarin hydrochloride (Z-Phe-Arg-AMC) at 10 μM was added, and the fluorescence was measured during 10 min at intervals of 3 s (excitation at 380 nm and emission at 460 nm) using a Varioskan Flash Spectrophotometer. From the slope of the negative control, we calculated the total (100%) enzyme activity, while the slopes obtained in the presence of the compounds yielded the percentage of remaining enzyme activity. The percentage of enzyme inhibition was determined as […]. The experiments were done in duplicate.

In general, IC50 refers to the point on the concentration scale where inhibition reaches its midpoint. The inhibition is the percentage by which the read-out fell short of the control.

Sequence of cruzipain (P25779 123-467): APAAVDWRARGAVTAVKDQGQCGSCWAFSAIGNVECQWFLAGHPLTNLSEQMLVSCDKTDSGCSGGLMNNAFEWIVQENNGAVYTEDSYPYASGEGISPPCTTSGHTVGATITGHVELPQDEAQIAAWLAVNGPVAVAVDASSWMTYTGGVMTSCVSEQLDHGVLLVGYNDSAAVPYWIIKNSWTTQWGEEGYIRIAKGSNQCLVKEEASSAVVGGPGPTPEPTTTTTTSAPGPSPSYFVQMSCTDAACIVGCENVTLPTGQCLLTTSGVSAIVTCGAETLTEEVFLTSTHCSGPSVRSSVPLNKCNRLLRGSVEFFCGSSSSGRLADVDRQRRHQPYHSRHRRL
Sequence of triosephosphate isomerase from T. cruzi (TcTIM) (P52270 whole entry): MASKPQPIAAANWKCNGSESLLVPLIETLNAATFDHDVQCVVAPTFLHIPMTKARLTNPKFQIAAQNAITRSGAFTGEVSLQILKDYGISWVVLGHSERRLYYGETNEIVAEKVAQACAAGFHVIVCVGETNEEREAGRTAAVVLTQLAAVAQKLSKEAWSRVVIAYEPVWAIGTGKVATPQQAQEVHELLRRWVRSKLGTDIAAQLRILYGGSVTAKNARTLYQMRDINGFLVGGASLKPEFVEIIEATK

Take `C=CCn1c(-c2ccc(Cl)cc2)cs\c1=N/N=C/C=C/c1ccco1` [GAT1033]: the IC50 in data set [1] worked out at 2 ± 0.2 µM; in data set [3] it was 405 ± 10 µM. The molecule further showed an LD50 without chorion in data set [2] (dechorionated zebrafish embryos, 72 h incubation) of 27 ± 1 µM. Further, the LD50 with chorion in data set [2] (zebrafish embryos with chorion) was > 100 µM. Further, the inhibition at 100 µM in data set [4] and in data set [5] was 0% in each case.
